Data reported in patent US20250270200A1, “CTPS1 INHIBITORS AND USES THEREOF” (Nimbus Clotho, Inc., priority 2022, published 2025).
Each block holds one compound with its values, some of them ahead of it.

Molecular target: T1, human CTPS1 (Homo sapiens, UniProt P17812)
T1 sequence (P17812 1-591): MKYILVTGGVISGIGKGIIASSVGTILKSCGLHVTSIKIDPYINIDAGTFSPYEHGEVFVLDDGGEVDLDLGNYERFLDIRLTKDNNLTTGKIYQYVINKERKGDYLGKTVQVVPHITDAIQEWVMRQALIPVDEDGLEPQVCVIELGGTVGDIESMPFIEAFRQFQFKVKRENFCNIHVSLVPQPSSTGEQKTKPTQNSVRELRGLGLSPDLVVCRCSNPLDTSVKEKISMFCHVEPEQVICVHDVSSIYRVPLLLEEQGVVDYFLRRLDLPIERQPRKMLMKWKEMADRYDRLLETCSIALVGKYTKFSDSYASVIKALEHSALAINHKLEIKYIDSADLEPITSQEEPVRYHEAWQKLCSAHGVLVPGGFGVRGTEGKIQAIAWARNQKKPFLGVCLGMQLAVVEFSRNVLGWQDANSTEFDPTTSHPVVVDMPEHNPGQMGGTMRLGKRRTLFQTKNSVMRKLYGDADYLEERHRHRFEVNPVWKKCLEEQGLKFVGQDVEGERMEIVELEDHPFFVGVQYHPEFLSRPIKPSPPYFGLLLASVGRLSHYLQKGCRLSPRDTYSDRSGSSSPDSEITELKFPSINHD
Test: ADP-Glo assay, human CTPS1 enzyme inhibition
Assay type: biochemical
Conditions: wild-type human CTPS1, 25 nM enzyme; ADP-Glo; read-out: ADP-Glo_WT_hCTPS1—25 nM_IC50 (IC50)
Protocol: The enzyme inhibitory activities of the compounds of the invention against the target of interest were determined using the ADP-Glo™ assay (Promega). Assays for human CTPS1 and CTPS2 were performed in 1× assay buffer containing 50 mM HEPES (Life Technologies), 10 mM Mg2+, 5 mM KCl, 2 mM DTT, 0.01% F-127, pH to 7.4 accordingly. All reagents are from Sigma-Aldrich, unless specified otherwise. Purified human full length active N-terminal FLAG-8×HIS-TEV tagged CTPS1 (UniprotKB—P17812, […]-CTPS1[1-591]) was generated using a mammalian expression system at Viva Biotech (Shanghai) Ltd.
Purified human CTPS1 protein was prepared in 1× assay buffer to the final working protein concentration required for the reaction. A 2.5 μL volume per well of human CTPS 1 protein was mixed with 0.1 μL per well of test compound dissolved in DMSO and pre-incubated at 25 degrees C. for 10 minutes. 2.5 μL per well of the reaction precursors ATP (UltraPure ATP from ADP-Glo™ kit) and UTP were then added and pre-incubated for an additional 10 minutes at 25 degrees C. Finally, the reaction was initiated by the addition of 5 μL of the reaction precursors L-glutamine and GTP. The final concentration of all reaction components in the assay: ATP (120 μM), UTP (160 μM), GTP (60 μM), L-Glutamine (100 μM), DMSO (1%), hCTPS1 (25 nM). This mixture was incubated for an appropriate amount of time within the determined linear phase of the reaction at 25 degrees C. under sealed plate conditions with constant agitation at 500 revolutions per minute (rpm). ADP-Glo™ reagent was added for 60 minutes (10 μL per well) and subsequently ADP-Glo™ development reagent was added for 60 minutes (20 μL per well) prior to signal detection in a microplate reader (Envision Multilabel Reader, Perkin Elmer). Following each reagent addition over the course of the assay, assay plates were pulse centrifuged for 1 minute at 1000 rpm.
The enzyme converts ATP to ADP and the ADP-Glo™ reagent subsequently depletes any remaining ATP in the reaction system. The ADP-Glo™ detection reagents converts the ADP that has been produced by the enzyme back into ATP, which is then utilized as a substrate together with luciferin for the enzyme luciferase. Light generated by this chemiluminescent reaction is quantified and is directly proportional to the amount of ADP produced by the CTPS1 enzyme reaction. […]

SMILES: CCOc1cncc(-c2cnc(C(=O)N[C@@H](c3cc(NS(=O)(=O)C4CC4)ccn3)C3CCOCC3)s2)n1 [I-19, (R)—N-((4-(cyclopropanesulfonamido)pyridin-2-yl)(tetrahydro-2H-pyran-4-yl)methyl)-5-(6-ethoxypyrazin-2-yl)thiazole-2-carboxamide]
IC50: 5 to 25 nM

SMILES: CCOc1cncc(-c2cnc(C(=O)N[C@H](c3cc(NS(=O)(=O)C4CC4)ccn3)C3CCOCC3)s2)n1 [I-20, (S)—N-((4-(cyclopropanesulfonamido)pyridin-2-yl)(tetrahydro-2H-pyran-4-yl)methyl)-5-(6-ethoxypyrazin-2-yl)thiazole-2-carboxamide]
IC50: 5 to 25 nM

SMILES: CCOc1cncc(-c2cnc(C(=O)N[C@H](COC)c3nccc(NS(=O)(=O)C4CC4)n3)s2)n1 [I-21, (S)-N-(1-(4-(cyclopropanesulfonamido)pyrimidin-2-yl)-2-methoxyethyl)-5-(6-ethoxypyrazin-2-yl)thiazole-2-carboxamide]
IC50: 5 to 25 nM

SMILES: CCOc1cncc(-c2cnc(C(=O)N[C@@H](c3cc(NS(=O)(=O)C4CC4)ccn3)C(C)(C)CN(C)C)s2)n1 [I-43, (R)-N-(1-(4-(cyclopropanesulfonamido)pyridin-2-yl)-3-(dimethylamino)-2,2-dimethylpropyl)-5-(6-ethoxypyrazin-2-yl)thiazole-2-carboxamide]
IC50: 5 to 25 nM

SMILES: CCOc1cncc(-c2cnc(C(=O)N[C@@H](c3cc(NS(=O)(=O)C4CC4)ccn3)[C@H](C)OC)s2)n1 [I-44, N-((1S,2S)-1-(4-(cyclopropanesulfonamido)pyridin-2-yl)-2-methoxypropyl)-5-(6-ethoxypyrazin-2-yl)thiazole-2-carboxamide]
IC50: 5 to 25 nM

SMILES: CCOc1cncc(-c2cnc(C(=O)N[C@H](c3cc(NS(=O)(=O)C4CC4)ccn3)[C@@H](C)OC)s2)n1 [I-45, N-((1R,2R)-1-(4-(cyclopropanesulfonamido)pyridin-2-yl)-2-methoxypropyl)-5-(6-ethoxypyrazin-2-yl)thiazole-2-carboxamide]
IC50: 5 to 25 nM

SMILES: CCOc1cncc(-c2cnc(C(=O)N[C@@H](c3cc(NS(=O)(=O)C4CC4)ccn3)[C@@H](C)OC)s2)n1 [I-46, N-((1S,2R)-1-(4-(cyclopropanesulfonamido)pyridin-2-yl)-2-methoxypropyl)-5-(6-ethoxypyrazin-2-yl)thiazole-2-carboxamide]
IC50: 5 to 25 nM

SMILES: CCOc1cncc(-c2cnc(C(=O)NC(CC(C)(C)N(C)C)c3cc(NS(=O)(=O)C4CC4)ccn3)s2)n1 (stereo not shown) [I-48, N-(1-(4-(cyclopropanesulfonamido)pyridin-2-yl)-3-(dimethylamino)-3-methylbutyl)-5-(6-ethoxypyrazin-2-yl)thiazole-2-carboxamide]
IC50: 5 to 25 nM

SMILES: CCOc1cncc(-c2cnc(C(=O)N[C@H](CC(C)(C)N(C)C)c3cc(NS(=O)(=O)C4CC4)ccn3)s2)n1 [I-49, (R)-N-(1-(4-(cyclopropanesulfonamido)pyridin-2-yl)-3-(dimethylamino)-3-methylbutyl)-5-(6-ethoxypyrazin-2-yl)thiazole-2-carboxamide]
IC50: 50 to 100 nM

SMILES: CCOc1cncc(-c2cnc(C(=O)N[C@@H](CC(C)(C)N(C)C)c3cc(NS(=O)(=O)C4CC4)ccn3)s2)n1 [I-50, (S)-N-(1-(4-(cyclopropanesulfonamido)pyridin-2-yl)-3-(dimethylamino)-3-methylbutyl)-5-(6-ethoxypyrazin-2-yl)thiazole-2-carboxamide]
IC50: 5 to 25 nM

SMILES: C[C@@H](CN1CCCCC1)[C@@H](NC(=O)c1ncc(-c2cnn3ccc(Cl)cc23)s1)c1cc(NS(=O)(=O)C2CC2)ccn1 [I-55, 5-(5-chloropyrazolo[1,5-a]pyridin-3-yl)-N-((1R,2S)-1-(4-(cyclopropanesulfonamido)pyridin-2-yl)-2-methyl-3-(piperidin-1-yl)propyl)thiazole-2-carboxamide]
IC50: 50 to 100 nM

SMILES: C[C@H](CN1CCCCC1)[C@H](NC(=O)c1ncc(-c2cnn3ccc(Cl)cc23)s1)c1cc(NS(=O)(=O)C2CC2)ccn1 [I-57, 5-(5-chloropyrazolo[1,5-a]pyridin-3-yl)-N-((1S,2R)-1-(4-(cyclopropanesulfonamido)pyridin-2-yl)-2-methyl-3-(piperidin-1-yl)propyl)thiazole-2-carboxamide]
IC50: 5 to 25 nM

SMILES: C[C@@H](CN1CCCCC1)[C@H](NC(=O)c1ncc(-c2cnn3ccc(Cl)cc23)s1)c1cc(NS(=O)(=O)C2CC2)ccn1 [I-58, 5-(5-chloropyrazolo[1,5-a]pyridin-3-yl)-N-((1S,2S)-1-(4-(cyclopropanesulfonamido)pyridin-2-yl)-2-methyl-3-(piperidin-1-yl)propyl)thiazole-2-carboxamide]
IC50: 50 to 100 nM

SMILES: CCOc1cncc(-c2cnc(C(=O)N[C@H](c3cc(NS(=O)(=O)C4CC4)ccn3)[C@H]3CCCO3)s2)n1 [I-59, N-((R)-(4-(cyclopropanesulfonamido)pyridin-2-yl)((R)-tetrahydrofuran-2-yl)methyl)-5-(6-ethoxypyrazin-2-yl)thiazole-2-carboxamide]
IC50: 25 to 50 nM

SMILES: CCOc1cncc(-c2cnc(C(=O)N[C@H](c3cc(NS(=O)(=O)C4CC4)ccn3)[C@@H]3CCCO3)s2)n1 [I-60, N-((R)-(4-(cyclopropanesulfonamido)pyridin-2-yl)((S)-tetrahydrofuran-2-yl)methyl)-5-(6-ethoxypyrazin-2-yl)thiazole-2-carboxamide]
IC50: 5 to 25 nM

The remaining lines, values ahead:

IC50: 5 to 25 nM
SMILES: CCOc1cncc(-c2cnc(C(=O)N[C@@H](c3cc(NS(=O)(=O)C4CC4)ccn3)[C@@H]3CCCO3)s2)n1 [I-61, N-((S)-(4-(cyclopropanesulfonamido)pyridin-2-yl)((S)-tetrahydrofuran-2-yl)methyl)-5-(6-ethoxypyrazin-2-yl)thiazole-2-carboxamide]

IC50: 5 to 25 nM
SMILES: CCOc1cncc(-c2cnc(C(=O)N[C@@H](c3cc(NS(=O)(=O)C4CC4)ccn3)[C@H]3CCCO3)s2)n1 [I-62, N-((S)-(4-(cyclopropanesulfonamido)pyridin-2-yl)((R)-tetrahydrofuran-2-yl)methyl)-5-(6-ethoxypyrazin-2-yl)thiazole-2-carboxamide]

IC50: > 100 nM
SMILES: CCOc1cncc(-c2cnc(C(=O)N(C)[C@H](c3cc(NS(=O)(=O)C4CC4)ccn3)[C@H]3CCOC3)s2)n1 [I-63, N-((S)-(4-(cyclopropanesulfonamido)pyridin-2-yl)((R)-tetrahydrofuran-3-yl)methyl)-5-(6-ethoxypyrazin-2-yl)-N-methylthiazole-2-carboxamide]

IC50: 50 to 100 nM
SMILES: CCOc1cncc(-c2cnc(C(=O)N(C)[C@H](c3cc(NS(=O)(=O)C4CC4)ccn3)[C@@H]3CCOC3)s2)n1 [I-64, N-((S)-(4-(cyclopropanesulfonamido)pyridin-2-yl)((S)-tetrahydrofuran-3-yl)methyl)-5-(6-ethoxypyrazin-2-yl)-N-methylthiazole-2-carboxamide]

IC50: > 100 nM
SMILES: CCOc1cncc(-c2cnc(C(=O)N(C)[C@@H](c3cc(NS(=O)(=O)C4CC4)ccn3)[C@H]3CCOC3)s2)n1 [I-65, N-((R)-(4-(cyclopropanesulfonamido)pyridin-2-yl)((R)-tetrahydrofuran-3-yl)methyl)-5-(6-ethoxypyrazin-2-yl)-N-methylthiazole-2-carboxamide]

IC50: 25 to 50 nM
SMILES: CCOc1cncc(-c2cnc(C(=O)N(C)[C@@H](c3cc(NS(=O)(=O)C4CC4)ccn3)[C@@H]3CCOC3)s2)n1 [I-66, N-((R)-(4-(cyclopropanesulfonamido)pyridin-2-yl)((S)-tetrahydrofuran-3-yl)methyl)-5-(6-ethoxypyrazin-2-yl)-N-methylthiazole-2-carboxamide]

IC50: 25 to 50 nM
SMILES: CCOc1cncc(-c2ccc(C(=O)N[C@H](c3cc(NS(=O)(=O)C4CC4)ccn3)[C@H]3CCCO3)nc2)n1 [I-67, N-((R)-(4-(cyclopropanesulfonamido)pyridin-2-yl)((R)-tetrahydrofuran-2-yl)methyl)-5-(6-ethoxypyrazin-2-yl)picolinamide]
